What was measured:
[1] = target: T1, Adrenergic receptor alpha-2 (Rattus norvegicus, UniProt P22086+P19328+P22909); assay: Compound was tested for inhibition of [3H]clonidine against Alpha-2 adrenergic receptor from rat cortical membranes using in vitro adrenergic receptor binding assay.; type: cell membranes, Membrane
T1 sequence (P22086 whole entry): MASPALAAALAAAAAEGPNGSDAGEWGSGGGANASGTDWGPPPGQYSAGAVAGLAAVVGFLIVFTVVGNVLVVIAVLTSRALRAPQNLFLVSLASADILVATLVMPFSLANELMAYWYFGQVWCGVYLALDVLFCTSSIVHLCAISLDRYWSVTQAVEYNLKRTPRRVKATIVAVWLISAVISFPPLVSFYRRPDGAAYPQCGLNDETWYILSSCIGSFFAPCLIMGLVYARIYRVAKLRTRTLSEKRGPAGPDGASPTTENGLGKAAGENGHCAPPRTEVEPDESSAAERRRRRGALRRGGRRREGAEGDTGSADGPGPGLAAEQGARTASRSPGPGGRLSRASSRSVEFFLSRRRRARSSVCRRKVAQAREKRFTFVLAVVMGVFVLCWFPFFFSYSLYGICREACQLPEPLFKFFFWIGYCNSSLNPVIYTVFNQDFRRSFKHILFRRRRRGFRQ
T1 sequence (P19328 whole entry): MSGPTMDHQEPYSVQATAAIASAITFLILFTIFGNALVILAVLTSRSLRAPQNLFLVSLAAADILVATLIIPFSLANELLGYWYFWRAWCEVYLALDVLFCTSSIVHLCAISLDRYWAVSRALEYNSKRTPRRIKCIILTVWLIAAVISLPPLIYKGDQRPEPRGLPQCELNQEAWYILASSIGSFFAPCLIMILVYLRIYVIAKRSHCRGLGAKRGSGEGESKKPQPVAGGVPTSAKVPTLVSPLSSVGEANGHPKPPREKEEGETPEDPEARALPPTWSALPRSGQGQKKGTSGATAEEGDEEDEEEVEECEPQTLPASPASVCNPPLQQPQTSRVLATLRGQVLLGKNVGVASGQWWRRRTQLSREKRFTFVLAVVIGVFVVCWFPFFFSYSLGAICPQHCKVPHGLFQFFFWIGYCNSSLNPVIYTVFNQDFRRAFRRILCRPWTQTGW
T1 sequence (P22909 whole entry): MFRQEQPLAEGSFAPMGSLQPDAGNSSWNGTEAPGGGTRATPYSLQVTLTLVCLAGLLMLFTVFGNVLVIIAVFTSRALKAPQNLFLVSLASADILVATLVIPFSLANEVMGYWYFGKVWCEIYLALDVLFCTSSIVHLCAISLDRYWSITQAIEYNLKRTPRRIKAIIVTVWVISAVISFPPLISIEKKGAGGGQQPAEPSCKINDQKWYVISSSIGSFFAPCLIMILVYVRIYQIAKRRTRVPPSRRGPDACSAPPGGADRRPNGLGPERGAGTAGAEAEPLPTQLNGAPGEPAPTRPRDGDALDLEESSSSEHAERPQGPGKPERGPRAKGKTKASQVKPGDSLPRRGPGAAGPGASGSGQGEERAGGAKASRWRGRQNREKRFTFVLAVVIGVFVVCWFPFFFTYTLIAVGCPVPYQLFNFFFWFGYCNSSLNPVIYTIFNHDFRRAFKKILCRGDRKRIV

Rattus norvegicus [2] = organism: Rattus norvegicus; assay: Compound was tested for inhibition of [3H]5-HT against rat whole brain using in vitro biogenic amine uptake assay using rat brain synaptosomes.; type: functional
[3] = target: T2, Muscarinic acetylcholine receptor M1 (Rattus norvegicus, UniProt P08482); assay: Compound was tested for inhibition of [3H]pirenzepine binding against Muscarinic acetylcholine receptor M1 from rat cortical membranes using in vitro cholinergic receptor binding assay.; type: cell membranes, Membrane
T2 sequence (P08482 whole entry): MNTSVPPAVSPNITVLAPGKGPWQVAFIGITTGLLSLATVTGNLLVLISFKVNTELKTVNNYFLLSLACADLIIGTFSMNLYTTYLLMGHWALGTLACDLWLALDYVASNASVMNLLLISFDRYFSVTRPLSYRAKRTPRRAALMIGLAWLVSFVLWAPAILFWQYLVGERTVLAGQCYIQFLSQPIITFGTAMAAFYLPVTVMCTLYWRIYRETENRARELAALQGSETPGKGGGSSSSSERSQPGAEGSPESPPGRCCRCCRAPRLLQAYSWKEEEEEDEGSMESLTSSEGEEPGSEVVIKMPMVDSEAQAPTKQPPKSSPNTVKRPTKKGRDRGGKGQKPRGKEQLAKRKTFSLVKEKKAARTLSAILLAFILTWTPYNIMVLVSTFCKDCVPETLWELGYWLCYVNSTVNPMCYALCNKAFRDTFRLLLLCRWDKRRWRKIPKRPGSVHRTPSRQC

Mus musculus [4] = assay: Antagonistic activity against scopolamine-induced behavioral deficits in mice by subcutaneous administration at a concentration of 0.16 mg/kg; type: functional
Mus musculus [5] = assay: Antagonistic activity against scopolamine-induced behavioral deficits in mice by subcutaneous administration at a concentration of 2.5 mg/kg; type: functional
Mus musculus [6] = assay: Antagonistic activity against scopolamine-induced behavioral deficits in mice by subcutaneous administration at a concentration of 0.63 mg/kg; type: functional
Mus musculus [7] = assay: Antagonistic activity against scopolamine-induced behavioral deficits in mice by subcutaneous administration at a concentration of 5.0 mg/kg; type: functional
Mus musculus [8] = assay: Antagonistic activity against scopolamine-induced behavioral deficits in mice by subcutaneous administration at a concentration of 0.31 mg/kg; type: functional
[9] = target: Muscarinic acetylcholine receptor; assay: Inhibition of radioligand [3H]QNB binding to muscarinic acetylcholine receptor in the rat forebrain in the presence of zinc
Rattus norvegicus [10] = organism: Rattus norvegicus; assay: Compound was tested for inhibition of [3H]norepinephrine against rat whole brain using in vitro biogenic amine uptake assay using rat brain synaptosomes.; type: functional
Mus musculus [11] = assay: Antagonistic activity against scopolamine-induced behavioral deficits in mice by subcutaneous administration at a concentration of 1.25 mg/kg; type: functional
Acetylcholinesterase = target: T3, Acetylcholinesterase (Rattus norvegicus, UniProt P37136); assay: In vitro inhibition of Acetylcholinesterase from rat striatum
T3 sequence (P37136 whole entry): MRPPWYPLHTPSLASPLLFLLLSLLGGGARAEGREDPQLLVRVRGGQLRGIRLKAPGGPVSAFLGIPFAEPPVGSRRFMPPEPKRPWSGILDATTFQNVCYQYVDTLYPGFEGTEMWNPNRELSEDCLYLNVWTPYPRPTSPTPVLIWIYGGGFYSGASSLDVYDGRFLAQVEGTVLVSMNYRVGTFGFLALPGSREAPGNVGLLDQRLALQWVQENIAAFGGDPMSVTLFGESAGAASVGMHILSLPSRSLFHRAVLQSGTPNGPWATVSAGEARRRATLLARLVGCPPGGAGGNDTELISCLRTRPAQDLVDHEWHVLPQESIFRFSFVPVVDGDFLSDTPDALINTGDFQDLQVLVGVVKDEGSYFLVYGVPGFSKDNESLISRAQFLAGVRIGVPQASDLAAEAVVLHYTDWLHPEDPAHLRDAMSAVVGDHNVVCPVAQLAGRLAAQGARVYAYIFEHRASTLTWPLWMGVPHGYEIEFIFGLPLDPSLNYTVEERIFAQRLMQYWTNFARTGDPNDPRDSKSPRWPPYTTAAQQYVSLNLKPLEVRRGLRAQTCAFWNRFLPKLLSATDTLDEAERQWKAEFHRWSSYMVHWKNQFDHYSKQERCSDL

C=Cc1cccn1N(C)c1ccncc1
IC50 [1]: 0.21 µM | IC50 (Rattus norvegicus [2]): > 20 µM | IC50 [3]: 5.1 µM | Response (Mus musculus [4]): 27% | Response (Mus musculus [5]): 27% | Response (Mus musculus [6]): 33% | Response (Mus musculus [7]): 20% | Response (Mus musculus [8]): 33% | IC50 [9]: 18 µM | IC50 (Rattus norvegicus [10]): 14 µM | Response (Mus musculus [11]): 33% | IC50 (Acetylcholinesterase): > 100 µM
